Calls of active or inactive are those of the source.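 Rule for the calls: active = compounds whose EC50, the dose giving half of full IDE activation, is 100 µM or lower; inactive = EC50 above 100 µM or not measured.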

Chain of Insulin-degrading enzyme (Homo sapiens) (P14735 whole entry, looked up): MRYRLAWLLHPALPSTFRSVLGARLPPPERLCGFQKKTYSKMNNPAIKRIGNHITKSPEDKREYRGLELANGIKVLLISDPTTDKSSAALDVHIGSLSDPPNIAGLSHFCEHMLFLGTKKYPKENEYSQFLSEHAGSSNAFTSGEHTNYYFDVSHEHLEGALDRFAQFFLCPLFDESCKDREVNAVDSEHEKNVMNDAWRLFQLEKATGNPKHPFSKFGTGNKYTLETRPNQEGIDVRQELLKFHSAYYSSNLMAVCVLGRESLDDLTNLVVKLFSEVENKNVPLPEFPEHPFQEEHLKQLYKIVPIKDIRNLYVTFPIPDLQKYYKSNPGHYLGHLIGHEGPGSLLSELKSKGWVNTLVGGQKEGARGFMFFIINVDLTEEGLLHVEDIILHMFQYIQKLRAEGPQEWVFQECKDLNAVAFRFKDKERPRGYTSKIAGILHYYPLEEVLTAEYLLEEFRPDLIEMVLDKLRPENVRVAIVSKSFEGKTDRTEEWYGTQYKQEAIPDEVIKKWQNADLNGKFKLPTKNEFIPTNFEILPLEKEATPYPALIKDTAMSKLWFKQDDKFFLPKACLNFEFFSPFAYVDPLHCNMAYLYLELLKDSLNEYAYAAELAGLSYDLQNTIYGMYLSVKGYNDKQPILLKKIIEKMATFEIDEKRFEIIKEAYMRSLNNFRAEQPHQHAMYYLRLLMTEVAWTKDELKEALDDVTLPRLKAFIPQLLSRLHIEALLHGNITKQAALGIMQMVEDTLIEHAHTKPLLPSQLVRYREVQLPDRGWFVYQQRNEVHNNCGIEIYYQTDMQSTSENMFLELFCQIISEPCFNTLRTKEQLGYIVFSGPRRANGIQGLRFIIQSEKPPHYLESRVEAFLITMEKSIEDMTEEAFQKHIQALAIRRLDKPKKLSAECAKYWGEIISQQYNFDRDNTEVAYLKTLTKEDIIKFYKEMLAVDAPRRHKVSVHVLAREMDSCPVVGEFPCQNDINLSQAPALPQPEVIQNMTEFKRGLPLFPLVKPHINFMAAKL

This assay has as its target Insulin-degrading enzyme (Homo sapiens) (UniProt P14735). Description: WT IDE enzyme activation, cell-free – biochemical, fluorescence polarization, run by assay provider, counter-screen for IDE activator project, late-stage follow-up (AID 624043). As to conditions: recombinant IDE, FAbetaB cleavage. A general note: Fluorescence polarisation rises when a labelled molecule tumbles more slowly, as on binding a larger partner.
Broadly, the EC50 is the concentration that produces a half-maximal response. With `CC(C)CCn1nnnc1C(C(C)C)N1CCN(c2ccccc2)CC1` (stereo not drawn), the EC50 was > 15 µM (inactive).

For `CC(C)CCn1nnnc1CN1CCN(c2ccccc2F)CC1`, the EC50 is > 15 µM (inactive).

For `CCC(c1nnnn1CCC(C)C)N1CCN(c2ccccc2)CC1` (stereo not drawn), the EC50 is > 15 µM (inactive).

Values taken from PubChem BioAssay AID624043 (The Scripps Research Institute Molecular Screening Center, 2012).
